Tested on: 3T3-L1 adipocyte cells
Assay: ability of released insulin to regulate 14C-deoxyglucose uptake
Type: cell-based
Settings: 14C-deoxyglucose uptake by cultured 3T3-L1 adipocyte cells

insulin
biological activity of released insulin: retains its biological activity
